Laboratory results published in patent publication US20260234167A1, “SOLID STATE FORMS OF DELGOCITINIB AND PROCESS THEREOF” (ASSIA CHEMICAL INDUSTRIES LTD., priority 2023, published 2026).
Each block holds one compound with its values, some of them ahead of it.

What was measured:
Assay type in all cases: physicochemical
[1] = Storage stability at different relative humidities at ambient temperature, XRPD after 7 days; conditions: for XRPD after storage at different relative humidities for 7 days: ambient temperature
Method: Powder X-ray Diffraction was performed on an X-Ray powder diffractometer Bruker D8 Advance; CuK radiation (λ=1.5418 Å); Lynx eye detector; laboratory temperature 22-25° C.; PMMA specimen holder ring. Prior to analysis, the samples were gently ground by means of mortar and pestle in order to obtain a fine powder. The ground sample was adjusted into a cavity of the sample holder and the surface of the sample was smoothed by means of a cover glass. Measurement parameters: Scan range: 2-40 degrees 2-theta; Scan mode: continuous; Step size: 0.05 degrees; Time per step: 0.5 s; Sample spin: 30 rpm; Sample holder: PMMA specimen holder ring with silicon low background. Samples of crystalline forms of Delgocitinib according to the disclosure, were subjected to conditions of different relative humidities at ambient temperature. XRPD analysis was performed on the samples after 7 days.

[2] = Grinding experiments (strong grinding in mortar with pestle for 2 minutes), XRPD after grinding; conditions: for XRPD after grinding: about 20 mg ground in mortar with pestle for 2 minutes
Method: Powder X-ray Diffraction was performed on an X-Ray powder diffractometer Bruker D8 Advance; CuK radiation (λ=1.5418 Å); Lynx eye detector; laboratory temperature 22-25° C.; PMMA specimen holder ring. Prior to analysis, the samples were gently ground by means of mortar and pestle in order to obtain a fine powder. The ground sample was adjusted into a cavity of the sample holder and the surface of the sample was smoothed by means of a cover glass. Measurement parameters: Scan range: 2-40 degrees 2-theta; Scan mode: continuous; Step size: 0.05 degrees; Time per step: 0.5 s; Sample spin: 30 rpm; Sample holder: PMMA specimen holder ring with silicon low background. Samples of Delgocitinib forms according to the disclosure were subjected to strong grinding. In these experiments, about 20 mg of the sample was placed in a mortar and ground with a pestle for 2 minutes. XRPD analysis was performed on each sample after the grinding experiment (Table 4): […]

[3] = Stability to compression (2 tons, hydraulic press), XRPD after 2 minutes
Method: Powder X-ray Diffraction was performed on an X-Ray powder diffractometer Bruker D8 Advance; CuK radiation (λ=1.5418 Å); Lynx eye detector; laboratory temperature 22-25° C.; PMMA specimen holder ring. Prior to analysis, the samples were gently ground by means of mortar and pestle in order to obtain a fine powder. The ground sample was adjusted into a cavity of the sample holder and the surface of the sample was smoothed by means of a cover glass. Measurement parameters: Scan range: 2-40 degrees 2-theta; Scan mode: continuous; Step size: 0.05 degrees; Time per step: 0.5 s; Sample spin: 30 rpm; Sample holder: PMMA specimen holder ring with silicon low background. Samples of Delgocitinib were subjected to pressures of 2 tons (Atlas® Autopress hydraulic press, set to 2 tons). XRPD analysis was carried out on the samples after 2 minutes.

[4] = Storage stability at different relative humidities and temperatures in packed bags, XRPD after 1, 2, 3 and 6 months
Method: Powder X-ray Diffraction was performed on an X-Ray powder diffractometer Bruker D8 Advance; CuK radiation (λ=1.5418 Å); Lynx eye detector; laboratory temperature 22-25° C.; PMMA specimen holder ring. Prior to analysis, the samples were gently ground by means of mortar and pestle in order to obtain a fine powder. The ground sample was adjusted into a cavity of the sample holder and the surface of the sample was smoothed by means of a cover glass.
Measurement parameters: Scan range: 2-40 degrees 2-theta; Scan mode: continuous; Step size: 0.05 degrees; Time per step: 0.5 s; Sample spin: 30 rpm; Sample holder: PMMA specimen holder ring with silicon low background.
Samples of Delgocitinib polymorph forms according to the disclosure were subjected to conditions of different relative humidities at different temperatures. Forms DL1 was kept in low-density polyethylene bag (twist and tied) covered by triple laminated bag (heat and sealed). Forms DL2, DL3, DL10 and DL11 were kept in low-density polyethylene bag (twist and tied) and covered by triple laminated bag (heat and sealed), while 2 gram silica gel sachet was added in between the two bags.

Compound: C[C@H]1CN(C(=O)CC#N)[C@]12CCN(c1ncnc3[nH]ccc13)C2 [Form DL1, 3-[(3S,4R)-3-methyl-7-(7H-pyrrolo[2,3-d]pyrimidin-4-yl)-1,7-diazaspiro[3.4]octan-1-yl]-3-oxopropanenitrile]
XRPD after storage at different relative humidities for 7 days ([1]; 20% relative humidity, listed as DL1): DL1
Stability after exposure to high and low relative humidity conditions (conclusion in words) ([1]; 20-80% relative humidity, at least 7 days): stable
XRPD after storage at different relative humidities for 7 days ([1]; 40% relative humidity, listed as DL1): DL1
XRPD after storage at different relative humidities for 7 days ([1]; 60% relative humidity, listed as DL1): DL1
XRPD after storage at different relative humidities for 7 days ([1]; 80% relative humidity, listed as DL1): DL1
XRPD after grinding ([2]; listed as DL1): DL1
Resistance to polymorphic changes on grinding (conclusion in words) ([2]; strong grinding, 2 minutes): resistant to polymorphic changes
XRPD after compression force (2 tons for 2 minutes) ([3]; listed as DL1): DL1
Stability under high pressure conditions (conclusion in words) ([3]; 2 tons, 2 minutes): stable under high pressure conditions
XRPD after storage at 25° C. at 60% RH ([4]; 1 month, listed as DL1): DL1
XRPD after storage at 25° C. at 60% RH ([4]; 2 months, listed as DL1): DL1
XRPD after storage at 25° C. at 60% RH ([4]; 3 months, listed as DL1): DL1
XRPD after storage at 25° C. at 60% RH ([4]; 6 months, listed as DL1): DL1
Storage stability (conclusion in words) ([4]; 25° C./60% RH and 40° C./75% RH, up to 6 months): highly storage stable
XRPD after storage at 40° C. at 75% RH ([4]; 1 month, listed as DL1): DL1
XRPD after storage at 40° C. at 75% RH ([4]; 2 months, listed as DL1): DL1
XRPD after storage at 40° C. at 75% RH ([4]; 3 months, listed as DL1): DL1
XRPD after storage at 40° C. at 75% RH ([4]; 6 months, listed as DL1): DL1

Compound: C[C@H]1CN(C(=O)CC#N)[C@]12CCN(c1ncnc3[nH]ccc13)C2 [Form DL2, 3-[(3S,4R)-3-methyl-7-(7H-pyrrolo[2,3-d]pyrimidin-4-yl)-1,7-diazaspiro[3.4]octan-1-yl]-3-oxopropanenitrile]
XRPD after storage at different relative humidities for 7 days ([1]; 20% relative humidity, listed as DL2): DL2
XRPD after storage at different relative humidities for 7 days ([1]; 40% relative humidity, listed as DL2): DL2
XRPD after storage at different relative humidities for 7 days ([1]; 60% relative humidity, listed as DL2): DL2
XRPD after storage at different relative humidities for 7 days ([1]; 80% relative humidity, listed as DL2): DL2
XRPD after grinding ([2]; listed as DL2): DL2
XRPD after compression force (2 tons for 2 minutes) ([3]; listed as DL2): DL2
XRPD after storage at 25° C. at 60% RH ([4]; 1 month, listed as DL2): DL2
XRPD after storage at 25° C. at 60% RH ([4]; 2 months, listed as DL2): DL2
XRPD after storage at 25° C. at 60% RH ([4]; 3 months, listed as DL2): DL2
XRPD after storage at 25° C. at 60% RH ([4]; 6 months, listed as DL2): DL2
XRPD after storage at 40° C. at 75% RH ([4]; 1 month, listed as DL2): DL2
XRPD after storage at 40° C. at 75% RH ([4]; 2 months, listed as DL2): DL2
XRPD after storage at 40° C. at 75% RH ([4]; 3 months, listed as DL2): DL2
XRPD after storage at 40° C. at 75% RH ([4]; 6 months, listed as DL2): DL2

Compound: C[C@H]1CN(C(=O)CC#N)[C@]12CCN(c1ncnc3[nH]ccc13)C2 [Form DL3, 3-[(3S,4R)-3-methyl-7-(7H-pyrrolo[2,3-d]pyrimidin-4-yl)-1,7-diazaspiro[3.4]octan-1-yl]-3-oxopropanenitrile]
XRPD after storage at different relative humidities for 7 days ([1]; 20% relative humidity, listed as DL3): DL3
XRPD after storage at different relative humidities for 7 days ([1]; 40% relative humidity, listed as DL3): DL3
XRPD after storage at different relative humidities for 7 days ([1]; 60% relative humidity, listed as DL3): DL3
XRPD after storage at different relative humidities for 7 days ([1]; 80% relative humidity, listed as DL3): DL3
XRPD after grinding ([2]; listed as DL3): DL3
XRPD after compression force (2 tons for 2 minutes) ([3]; listed as DL3): DL3
XRPD after storage at 25° C. at 60% RH ([4]; 1 month, listed as DL3): DL3
XRPD after storage at 25° C. at 60% RH ([4]; 2 months, listed as DL3): DL3
XRPD after storage at 25° C. at 60% RH ([4]; 3 months, listed as DL3): DL3
XRPD after storage at 25° C. at 60% RH ([4]; 6 months, listed as DL3): DL3
XRPD after storage at 40° C. at 75% RH ([4]; 1 month, listed as DL3): DL3
XRPD after storage at 40° C. at 75% RH ([4]; 2 months, listed as DL3): DL3
XRPD after storage at 40° C. at 75% RH ([4]; 3 months, listed as DL3): DL3
XRPD after storage at 40° C. at 75% RH ([4]; 6 months, listed as DL3): DL3

Results, then the compound that gave them:

XRPD after storage at different relative humidities for 7 days ([1]; 20% relative humidity, listed as DL10): DL10
XRPD after storage at different relative humidities for 7 days ([1]; 40% relative humidity, listed as DL10): DL10
XRPD after storage at different relative humidities for 7 days ([1]; 60% relative humidity, listed as DL10): DL10
XRPD after storage at different relative humidities for 7 days ([1]; 80% relative humidity, listed as DL10): DL10
XRPD after grinding ([2]; listed as DL10): DL10
XRPD after compression force (2 tons for 2 minutes) ([3]; listed as DL10): DL10
XRPD after storage at 25° C. at 60% RH ([4]; 1 month, listed as DL10): DL10
XRPD after storage at 25° C. at 60% RH ([4]; 2 months, listed as DL10): DL10
XRPD after storage at 25° C. at 60% RH ([4]; 3 months, listed as DL10): DL10
XRPD after storage at 25° C. at 60% RH ([4]; 6 months, listed as DL10): DL10
XRPD after storage at 40° C. at 75% RH ([4]; 1 month, listed as DL10): DL10
XRPD after storage at 40° C. at 75% RH ([4]; 2 months, listed as DL10): DL10
XRPD after storage at 40° C. at 75% RH ([4]; 3 months, listed as DL10): DL10
XRPD after storage at 40° C. at 75% RH ([4]; 6 months, listed as DL10): DL10
Compound: C[C@H]1CN(C(=O)CC#N)[C@]12CCN(c1ncnc3[nH]ccc13)C2 [Form DL10, 3-[(3S,4R)-3-methyl-7-(7H-pyrrolo[2,3-d]pyrimidin-4-yl)-1,7-diazaspiro[3.4]octan-1-yl]-3-oxopropanenitrile]

XRPD after storage at different relative humidities for 7 days ([1]; 20% relative humidity, listed as DL11): DL11
XRPD after storage at different relative humidities for 7 days ([1]; 40% relative humidity, listed as DL11): DL11
XRPD after storage at different relative humidities for 7 days ([1]; 60% relative humidity, listed as DL11): DL11
XRPD after storage at different relative humidities for 7 days ([1]; 80% relative humidity, listed as DL11): DL11
XRPD after grinding ([2]; listed as DL11): DL11
XRPD after compression force (2 tons for 2 minutes) ([3]; listed as DL11): DL11
XRPD after storage at 25° C. at 60% RH ([4]; 1 month, listed as DL11): DL11
XRPD after storage at 25° C. at 60% RH ([4]; 2 months, listed as DL11): DL11
XRPD after storage at 25° C. at 60% RH ([4]; 3 months, listed as DL11): DL11
XRPD after storage at 25° C. at 60% RH ([4]; 6 months, listed as DL11): DL11
XRPD after storage at 40° C. at 75% RH ([4]; 1 month, listed as DL11): DL11
XRPD after storage at 40° C. at 75% RH ([4]; 2 months, listed as DL11): DL11
XRPD after storage at 40° C. at 75% RH ([4]; 3 months, listed as DL11): DL11
XRPD after storage at 40° C. at 75% RH ([4]; 6 months, listed as DL11): DL11
Compound: C[C@H]1CN(C(=O)CC#N)[C@]12CCN(c1ncnc3[nH]ccc13)C2 [Form DL11, 3-[(3S,4R)-3-methyl-7-(7H-pyrrolo[2,3-d]pyrimidin-4-yl)-1,7-diazaspiro[3.4]octan-1-yl]-3-oxopropanenitrile]
